# Results: patent US11840686B2, “Modulation of prekallikrein (PKK) expression” (Ionis Pharmaceuticals, Inc., priority 2013, dated 2023)
# Strand notation (5' to 3'): a small letter for the sugar, then the base; units joined by * are phosphorothioate-linked, units joined directly phosphodiester-linked; [ ] holds rarer units or linkages, { } end groups; capitals alone tell only the bases. e = 2'-O-(2-methoxyethyl) (MOE); [5mC] = 5-methylcytosine; d = 2'-deoxy (DNA)
# Tested on: human PKK mRNA
# Assay: Antisense inhibition of human PKK mRNA in HepaRG cells, 5,000 nM (Example 2)
# Assay type: cell-based
# In short: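 Chimeric MOE gapmers with full phosphorothioate backbones were tested once at 5,000 nM in electroporated HepaRG cells. After about 24 hours, quantitative PCR measured PKK mRNA relative to untreated control cells.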
# [1] = Table 7, HepaRG cells, electroporation with 5,000 nM antisense oligonucleotide, approx. 24 hours, PKK mRNA by RT-PCR (RTS3454), relative to untreated control cells
# [2] = HepaRG cells, electroporation with 5,000 nM antisense oligonucleotide, approximately 24 hours, PKK mRNA by RT-PCR (RTS3454), relative to untreated control cells, Table 5 experiment
# [3] = human PKK mRNA, HepaRG cells, 5-10-5 motif oligonucleotides targeting SEQ ID NO: 1 and 10
# [4] = HepaRG cells, electroporation, 5,000 nM antisense oligonucleotide, approx. 24 hours, primer probe set RTS3454, relative to untreated control cells, Table 11
# [5] = HepaRG cells, electroporation with 5,000 nM antisense oligonucleotide, approximately 24 hours, PKK mRNA by RT-PCR (RTS3454), relative to untreated control cells, Table 6 experiment
# [6] = Table 8, HepaRG cells, electroporation with 5,000 nM antisense oligonucleotide, approx. 24 hours, PKK mRNA by RT-PCR (RTS3454), relative to untreated control cells
# [7] = HepaRG cells, 5,000 nM antisense oligonucleotide, 5-10-5 gapmers, Table 17
# [8] = Table 9 experiment, HepaRG cells, 20,000 cells per well, electroporation with 5,000 nM antisense oligonucleotide, approx. 24 hours, PKK mRNA by RT-PCR (RTS3454), relative to untreated control cells
# [9] = Table 10 experiment, HepaRG cells, 20,000 cells per well, electroporation with 5,000 nM antisense oligonucleotide, approx. 24 hours, PKK mRNA by RT-PCR (RTS3454), relative to untreated control cells
# [10] = human PKK mRNA, HepaRG cells, 5,000 nM antisense oligonucleotide, Table 18
# [11] = Table 13, human PKK mRNA in HepaRG cells, 5-10-5 gapmers
# [12] = human PKK mRNA in HepaRG cells, 5-10-5 gapmers, Table 14
# [13] = HepaRG cells, 5,000 nM antisense oligonucleotide, 5-10-5 gapmers, Table 16
substance,measurement,setting,value
547393 (eT*eG*e[5mC]*eA*eG*dG*dT*dT*dA*dA*dA*dA*dG*dG*d[5mC]*eT*eA*eT*eA*eT; antisense) [compound 547393],% inhibition,[1],73%
546150 (e[5mC]*eA*eT*e[5mC]*e[5mC]*d[5mC]*d[5mC]*dA*d[5mC]*d[5mC]*dT*d[5mC]*dT*dG*dA*eA*eG*eA*eA*eG; antisense) [compound 546150],% inhibition,[2],58%
547671 (e[5mC]*eT*eA*e[5mC]*eA*dA*d[5mC]*dT*dA*dT*dA*dA*d[5mC]*dA*dG*eT*eA*eT*e[5mC]*eA; antisense) [compound 547671],% inhibition,[3],0%
546390 (eG*eT*e[5mC]*eA*eG*d[5mC]*d[5mC]*d[5mC]*d[5mC]*dT*dG*dG*dT*dT*dA*e[5mC]*eG*eG*e[5mC]*eG; antisense) [compound 546390],% inhibition,[4],70%
546200 (antisense eA*eA*eA*eA*e[5mC]*dT*dG*dG*d[5mC]*dA*dG*d[5mC]*dG*dA*dA*eT*eG*eT*eT*eA) [compound 546200],% inhibition,[5],91%
547410 (e[5mC]*eA*eA*eG*eT*d[5mC]*dT*d[5mC]*dT*dT*dG*dG*d[5mC]*dA*dA*eA*e[5mC]*eA*eT*eT; antisense) [compound 547410],% inhibition,[6],88%
546898 (eA*eA*e[5mC]*eA*eG*dT*dA*dT*d[5mC]*dA*d[5mC]*dT*dG*dT*d[5mC]*e[5mC]*eT*eA*eT*eG; antisense) [compound 546898],% inhibition,[3],91%
546209 (antisense eG*e[5mC]*eT*eT*e[5mC]*dA*dG*dT*dG*dA*dG*dA*dA*dT*d[5mC]*e[5mC]*eA*eG*eA*eT) [compound 546209],% inhibition,[5],73%
547080 (eG*eT*eG*e[5mC]*eA*dA*dG*dA*d[5mC]*d[5mC]*dT*dT*dG*d[5mC]*dT*eT*eG*e[5mC]*e[5mC]*eA; antisense) [compound 547080],% inhibition,[7],54%
547082 (eT*e[5mC]*eT*e[5mC]*e[5mC]*d[5mC]*dT*dG*dA*dG*dT*d[5mC]*dA*d[5mC]*dA*eG*eT*eG*eG*eA; antisense) [compound 547082],% inhibition,[7],64%
547392 (eA*eA*eG*eG*e[5mC]*dT*dA*dT*dA*dT*d[5mC]*d[5mC]*dA*dG*dA*eT*eA*eT*eG*eG; antisense) [compound 547392],% inhibition,[1],81%
546331 (antisense eT*eT*e[5mC]*eA*e[5mC]*d[5mC]*dT*dT*dT*d[5mC]*dT*d[5mC]*d[5mC]*dT*dT*e[5mC]*eG*eA*eG*eA) [compound 546331],% inhibition,[8],59%
same,% inhibition,[9],44%
547672 (e[5mC]*eA*eA*eT*eA*dT*d[5mC]*dA*d[5mC]*dT*dG*dT*d[5mC]*d[5mC]*dT*eA*e[5mC]*eA*eA*e[5mC]; antisense) [compound 547672],% inhibition,[3],36%
547319 (antisense eG*eA*eA*eT*eG*dT*d[5mC]*d[5mC]*dA*dG*dA*dA*dA*d[5mC]*dT*eG*e[5mC]*eA*e[5mC]*e[5mC]) [compound 547319],% inhibition,[5],62%
547344 (antisense eG*eA*e[5mC]*eA*e[5mC]*dA*dT*dT*dA*dA*dA*dA*dT*dT*dG*eA*e[5mC]*eT*e[5mC]*e[5mC]) [compound 547344],% inhibition,[5],80%
546325 (antisense e[5mC]*eA*eG*eT*eT*dG*dG*dT*dA*dT*dA*dA*dA*dT*dT*eG*eT*eG*e[5mC]*eT) [compound 546325],% inhibition,[8],74%
same,% inhibition,[9],79%
547479 (antisense eT*eA*eT*eA*eA*dT*d[5mC]*dT*dT*dG*dA*dT*dA*dT*d[5mC]*eT*eT*eT*eT*e[5mC]) [compound 547479],% inhibition,[8],48%
same,% inhibition,[9],9%
548751 (antisense eA*e[5mC]*eT*eG*dT*dA*d[5mC]*dT*dA*dG*dT*dT*dT*d[5mC]*e[5mC]*eT*eA*eT) [compound 548751],% inhibition,[10],53%
547452 (antisense eG*eT*eT*eT*eT*dG*dG*dT*dG*dA*dA*dT*dA*dA*dT*eA*eA*eT*e[5mC]*eT) [compound 547452],% inhibition,[8],47%
same,% inhibition,[9],62%
546154 (eT*eG*eG*e[5mC]*eA*dG*dT*dA*dT*dT*dG*dG*dG*d[5mC]*dA*eT*eT*eT*eG*eG; antisense) [compound 546154],% inhibition,[2],85%
546789 (eG*e[5mC]*eT*eT*e[5mC]*dT*d[5mC]*dT*dA*dT*d[5mC]*dT*d[5mC]*d[5mC]*d[5mC]*eA*eG*eT*eG*eT; antisense) [compound 546789],% inhibition,[11],79%
546224 (antisense eT*eA*eG*eA*eA*dT*dG*dT*dA*dA*dA*dG*dA*dA*dG*eA*eG*eG*e[5mC]*eA) [compound 546224],% inhibition,[1],65%
547609 (antisense e[5mC]*eT*eA*eT*eA*dA*d[5mC]*dA*dA*dT*dA*dT*d[5mC]*dA*d[5mC]*eT*eG*eT*eA*e[5mC]) [compound 547609],% inhibition,[12],23%
547725 (eA*eT*eT*eG*eG*dT*dG*dG*dT*dG*dG*dG*dA*dT*dT*eG*eG*eT*eG*eG; antisense) [compound 547725],% inhibition,[7],26%
546152 (eG*eT*eA*e[5mC]*eA*dT*dG*dG*dA*dA*dG*d[5mC]*dT*dA*d[5mC]*eA*eT*e[5mC]*e[5mC]*e[5mC]; antisense) [compound 546152],% inhibition,[2],73%
547391 (eA*eT*eA*eT*e[5mC]*d[5mC]*dA*dG*dA*dT*dA*dT*dG*dG*dT*eG*eT*eT*eT*eT; antisense) [compound 547391],% inhibition,[1],32%
547312 (antisense eA*eT*eG*eT*eA*d[5mC]*dT*dT*dT*dT*dG*dG*d[5mC]*dA*dG*eG*eG*eT*eT*e[5mC]) [compound 547312],% inhibition,[2],46%
548732 (DNA eA*e[5mC]*eT*eG*dT*dA*d[5mC]*dT*dA*dG*dT*dT*dT*d[5mC]*e[5mC]*eT*eA; antisense) [compound 548732],% inhibition,[10],36%
547424 (eA*eG*eA*eG*e[5mC]*dT*d[5mC]*d[5mC]*d[5mC]*dT*dT*dG*dT*dG*dT*e[5mC]*e[5mC]*e[5mC]*eA*eT; antisense) [compound 547424],% inhibition,[6],90%
547710 (antisense eT*eG*e[5mC]*eG*eG*dT*dT*dA*dT*dA*dT*dG*dG*dG*d[5mC]*eT*eG*eA*eA*eG) [compound 547710],% inhibition,[13],85%
547523 (antisense eT*eT*eG*eT*e[5mC]*dA*dG*d[5mC]*d[5mC]*d[5mC]*d[5mC]*dT*dG*dG*dT*eT*eA*e[5mC]*eG*eG) [compound 547523],% inhibition,[4],69%
546796 (eG*eT*eA*e[5mC]*eT*d[5mC]*dA*d[5mC]*d[5mC]*dG*dG*dT*dA*d[5mC]*dT*e[5mC]*eT*eG*e[5mC]*e[5mC]; antisense) [compound 546796],% inhibition,[11],82%
547283 (antisense eA*eG*eT*eT*eG*d[5mC]*dT*dT*dG*d[5mC]*dT*dT*dG*dA*dA*eT*eA*eA*eA*eA) [compound 547283],% inhibition,[2],67%
547594 (eG*eT*eT*eT*e[5mC]*d[5mC]*dT*dA*dT*dA*dA*d[5mC]*dT*dA*dT*eA*eA*e[5mC]*eA*eG; antisense) [compound 547594],% inhibition,[12],19%
547508 (antisense e[5mC]*e[5mC]*e[5mC]*e[5mC]*eA*dG*dG*d[5mC]*dT*d[5mC]*dA*dG*dA*dA*dT*eT*eT*eG*eA*e[5mC]) [compound 547508],% inhibition,[4],69%
546346 (antisense eA*eG*eG*eG*eA*d[5mC]*d[5mC]*dA*d[5mC]*d[5mC]*dT*dG*dA*dA*dT*e[5mC]*eT*e[5mC]*e[5mC]*e[5mC]) [compound 546346],% inhibition,[8],83%
same,% inhibition,[9],70%
548736 (DNA eT*eA*eT*e[5mC]*dA*d[5mC]*dT*dG*dT*dA*d[5mC]*dT*dA*dG*eT*eT*eT; antisense) [compound 548736],% inhibition,[10],21%
546138 (eA*eA*eA*e[5mC]*eA*d[5mC]*dA*dA*dT*dT*dG*d[5mC]*dT*dT*d[5mC]*eT*eT*eG*eG*eA; antisense) [compound 546138],% inhibition,[2],69%
547721 (e[5mC]*eT*e[5mC]*eT*eA*dT*d[5mC]*dA*dA*dA*dA*dT*d[5mC]*d[5mC]*dT*eG*e[5mC]*eT*eG*e[5mC]; antisense) [compound 547721],% inhibition,[13],68%
547681 (antisense eA*eA*eT*eA*eT*d[5mC]*dA*d[5mC]*dT*dG*dT*dA*d[5mC]*d[5mC]*dT*eA*eT*eA*eT*e[5mC]) [compound 547681],% inhibition,[13],6%
548778 (antisense eA*eT*eA*eA*d[5mC]*dA*dG*dT*dA*dT*d[5mC]*dA*d[5mC]*eT*eG*eT*eA) [compound 548778],% inhibition,[10],20%
547361 (eG*e[5mC]*eA*eA*e[5mC]*d[5mC]*dA*dA*dT*dT*dT*d[5mC]*dT*dG*dA*eA*eA*eG*eG*eG; antisense) [compound 547361],% inhibition,[5],46%
546905 (eT*eA*e[5mC]*e[5mC]*eT*dA*dT*dA*dA*d[5mC]*dA*dG*dT*dA*dT*e[5mC]*eA*e[5mC]*eT*eG; antisense) [compound 546905],% inhibition,[3],65%
